What was measured:
[1] = biological target: T1, STAT6 protein (Homo sapiens, UniProt P42226); experiment: Fluorescence polarization (FP) binding assay, STAT6; conditions: FP competition, 5 nM fluorescein-labeled tracer, 200 nM protein, PBS pH7.4; read-out: Binding STAT6
T1 sequence (P42226 1-847): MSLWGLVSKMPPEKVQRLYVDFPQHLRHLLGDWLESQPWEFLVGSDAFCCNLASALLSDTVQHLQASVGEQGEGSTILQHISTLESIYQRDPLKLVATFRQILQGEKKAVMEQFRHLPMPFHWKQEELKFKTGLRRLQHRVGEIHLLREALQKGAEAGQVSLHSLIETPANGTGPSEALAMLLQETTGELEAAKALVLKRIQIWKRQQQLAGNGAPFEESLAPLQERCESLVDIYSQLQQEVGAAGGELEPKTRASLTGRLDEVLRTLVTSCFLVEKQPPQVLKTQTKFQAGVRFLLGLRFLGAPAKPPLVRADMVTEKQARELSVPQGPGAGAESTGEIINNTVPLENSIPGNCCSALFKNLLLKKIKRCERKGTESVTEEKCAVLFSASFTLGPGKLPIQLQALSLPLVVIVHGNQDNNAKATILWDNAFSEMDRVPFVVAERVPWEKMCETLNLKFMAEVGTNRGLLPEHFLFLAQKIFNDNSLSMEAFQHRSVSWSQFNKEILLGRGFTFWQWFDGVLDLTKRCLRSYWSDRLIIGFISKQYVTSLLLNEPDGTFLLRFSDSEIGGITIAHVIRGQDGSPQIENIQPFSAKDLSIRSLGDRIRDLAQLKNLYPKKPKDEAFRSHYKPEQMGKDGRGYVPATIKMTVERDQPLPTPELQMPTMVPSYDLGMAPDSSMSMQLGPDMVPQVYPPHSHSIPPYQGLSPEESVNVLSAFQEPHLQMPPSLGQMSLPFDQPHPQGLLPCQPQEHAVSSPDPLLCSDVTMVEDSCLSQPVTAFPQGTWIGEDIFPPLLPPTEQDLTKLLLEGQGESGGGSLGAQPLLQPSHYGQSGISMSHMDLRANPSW
Method in brief: (§1)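 Each well holds 200 nM STAT5 and/or STAT6 with 5 nM fluorescent tracer in PBS pH 7.4 (0.01% BGG, 0.01% Tween-20, 2 mM DTT). Binding reaches equilibrium over 1 h at room temperature after brief shaking, and polarization data are fitted nonlinearly.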

[2] = biological target: T2, STAT5A (Homo sapiens, UniProt P42229); experiment: Fluorescence polarization (FP) binding assay, STAT5A; conditions: FP competition, 5 nM fluorescein-labeled tracer, 200 nM protein, PBS pH7.4
T2 sequence (P42229 1-794): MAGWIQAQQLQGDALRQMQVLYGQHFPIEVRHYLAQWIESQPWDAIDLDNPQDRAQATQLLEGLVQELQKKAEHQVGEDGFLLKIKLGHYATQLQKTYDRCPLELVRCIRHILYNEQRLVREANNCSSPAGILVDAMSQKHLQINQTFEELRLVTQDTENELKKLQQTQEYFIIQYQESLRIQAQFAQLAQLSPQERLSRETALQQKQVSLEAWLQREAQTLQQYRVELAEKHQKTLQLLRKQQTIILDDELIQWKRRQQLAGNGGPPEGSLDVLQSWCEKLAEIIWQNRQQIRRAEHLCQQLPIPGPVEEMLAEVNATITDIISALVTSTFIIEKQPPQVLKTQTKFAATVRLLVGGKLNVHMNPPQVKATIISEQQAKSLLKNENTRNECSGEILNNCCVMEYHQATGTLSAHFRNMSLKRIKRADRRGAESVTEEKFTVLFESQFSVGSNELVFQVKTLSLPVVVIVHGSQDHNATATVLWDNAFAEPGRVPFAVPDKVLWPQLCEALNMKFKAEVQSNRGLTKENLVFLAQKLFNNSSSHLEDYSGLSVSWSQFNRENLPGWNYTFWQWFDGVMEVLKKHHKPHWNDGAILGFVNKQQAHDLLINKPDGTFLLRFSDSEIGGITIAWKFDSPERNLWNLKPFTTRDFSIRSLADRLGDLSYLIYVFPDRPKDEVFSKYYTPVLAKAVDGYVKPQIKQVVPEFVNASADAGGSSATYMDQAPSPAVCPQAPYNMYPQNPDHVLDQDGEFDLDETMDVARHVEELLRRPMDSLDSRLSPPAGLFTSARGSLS
Method in brief: as §1

| Ki [1] [µM] | Ki [2] [µM] | Structure (SMILES) |
| --- | --- | --- |
| 0.1 to 1 | 1 to 10 | CC(C)(C)[C@H](NC(=O)c1cc2cc(C(F)(F)P(=O)(O)O)ccc2[nH]1)C(=O)N1CCC[C@H]1C(=O)N(c1ccc(Cl)cc1)C1CCCCC1 [Compound 40, ((2-(((S)-1-((S)-2-((4-chlorophenyl)(cyclohexyl)carbamoyl)pyrrolidin-1-yl)-3,3-dimethyl-1-oxobutan-2-yl)carbamoyl)-1H-indol-5-yl)difluoromethyl)phosphonic acid] |
| 0.1 to 1 | 1 to 10 | CCO[C@@H]1CCN(C(=O)[C@@H](NC(=O)c2cc3cc(C(F)(F)P(=O)(O)O)ccc3s2)C(C)(C)C)[C@@H]1C(=O)N1CCO[C@H](c2ccccc2)C1 [Compound 307, ((2-(((S)-1-((2S,3R)-3-ethoxy-2-((R)-2-phenylmorpholine-4-carbonyl)pyrrolidin-1-yl)-3,3-dimethyl-1-oxobutan-2-yl)carbamoyl)benzo[b]thiophen-5-yl)difluoromethyl)phosphonic acid] |
| > 10 | > 10 | CC(=O)N1CC[C@H]2CN(C(=O)[C@@H]3CCCN3C(=O)[C@@H](NC(=O)c3cc4cc(C(F)(F)P(=O)(O)O)ccc4s3)C(C)(C)C)C[C@H]21 [Compound 95, ((2-(((S)-1-((S)-2-((3aS,6aS)-1-acetyloctahydropyrrolo[3,4-b]pyrrole-5-carbonyl)pyrrolidin-1-yl)-3,3-dimethyl-1-oxobutan-2-yl)carbamoyl)benzo[b]thiophen-5-yl)difluoromethyl)phosphonic acid] |
| < 0.1 | 1 to 10 | CC(C)(C)[C@H](NC(=O)c1cc2cc(C(F)(F)P(=O)(O)O)ccc2s1)C(=O)N1Cc2ccccc2[C@H]1C(=O)N1CCO[C@H](c2ccccc2)C1 [Compound 195, ((2-(((S)-3,3-dimethyl-1-oxo-1-((S)-1-((R)-2-phenylmorpholine-4-carbonyl)isoindolin-2-yl)butan-2-yl)carbamoyl)benzo[b]thiophen-5-yl)difluoromethyl)phosphonic acid] |
| > 10 | 1 to 10 | CC(C)(C)[C@H](NC(=O)c1cc2cc(C(F)(F)P(=O)(O)O)ccc2[nH]1)C(=O)N1CCC[C@H]1c1ncc(Cc2ccccc2)s1 [Compound 25, ((2-(((S)-1-((S)-2-(5-benzylthiazol-2-yl)pyrrolidin-1-yl)-3,3-dimethyl-1-oxobutan-2-yl)carbamoyl)-1H-indol-5-yl)difluoromethyl)phosphonic acid] |

The next lines start with the compound.

| Structure (SMILES) | Ki [1] [µM] | Ki [2] [µM] |
| --- | --- | --- |
| O=C(/C=C/c1ccc(C(F)(F)P(=O)(O)O)cc1)N[C@@H](CC1CCCCC1)C(=O)N1CCC[C@H]1C(=O)N1CCc2ccccc2C1 [Compound 24, ((4-((E)-3-(((S)-3-cyclohexyl-1-oxo-1-((S)-2-(1,2,3,4-tetrahydroisoquinoline-2-carbonyl)pyrrolidin-1-yl)propan-2-yl)amino)-3-oxoprop-1-en-1-yl)phenyl)difluoromethyl)phosphonic acid] | > 10 | > 10 |
| CC(C)(C)[C@H](NC(=O)c1ccc2cc(C(F)(F)P(=O)(O)O)ccc2c1)C(=O)N1CCC[C@H]1C(=O)N1CCO[C@@H](c2ccccc2)C1 [Compound 151, ((6-(((S)-3,3-dimethyl-1-oxo-1-((S)-2-((S)-2-phenylmorpholine-4-carbonyl)pyrrolidin-1-yl)butan-2-yl)carbamoyl)naphthalen-2-yl)difluoromethyl)phosphonic acid] | 1 to 10 | > 10 |
| Cc1cc(C2CN(C(=O)[C@@H]3CCCN3C(=O)[C@@H](NC(=O)c3cc4cc(C(F)(F)P(=O)(O)O)ccc4s3)C(C)(C)C)CCO2)ccc1F (stereo partly drawn) [Compound 108, (difluoro(2-(((2S)-1-((2S)-2-(2-(4-fluoro-3-methylphenyl)morpholine-4-carbonyl)pyrrolidin-1-yl)-3,3-dimethyl-1-oxobutan-2-yl)carbamoyl)benzo[b]thiophen-5-yl)methyl)phosphonic acid] | 1 to 10 | > 10 |
| CC(C)(C)[C@H](NC(=O)c1cc2cc(C(F)(F)P(=O)(O)O)ccc2s1)C(=O)N1CCC[C@H]1C(=O)N1CCOC(c2cc(F)c(Cl)cc2Cl)C1 (stereo partly drawn) [Compound 104, ((2-(((2S)-1-((2S)-2-(2-(2,4-dichloro-5-fluorophenyl)morpholine-4-carbonyl)pyrrolidin-1-yl)-3,3-dimethyl-1-oxobutan-2-yl)carbamoyl)benzo[b]thiophen-5-yl)difluoromethyl)phosphonic acid] | 1 to 10 | 1 to 10 |
| CC(C)(C)[C@H](NC(=O)c1cc2cc(C(F)(F)P(=O)(O)O)ccc2s1)C(=O)N1Cc2ccccc2CC1C(=O)N1CC[C@H](c2ccccc2)C1 (stereo partly drawn) [Compound 191, ((2-(((2S)-3,3-dimethyl-1-oxo-1-(3-((R)-3-phenylpyrrolidine-1-carbonyl)-3,4-dihydroisoquinolin-2(1H)-yl)butan-2-yl)carbamoyl)benzo[b]thiophen-5-yl)difluoromethyl)phosphonic acid] | 1 to 10 | > 10 |
| CC(C)(C)[C@H](NC(=O)c1cc2cc(C(F)(F)P(=O)(O)O)ccc2s1)C(=O)N1CCC[C@H]1C(=O)N1CC[C@H]2CN(C(=O)c3ccc(F)cc3)C[C@H]21 [Compound 94, (difluoro(2-(((S)-1-((S)-2-((3aS,6aS)-5-(4-fluorobenzoyl)octahydropyrrolo[3,4-b]pyrrole-1-carbonyl)pyrrolidin-1-yl)-3,3-dimethyl-1-oxobutan-2-yl)carbamoyl)benzo[b]thiophen-5-yl)methyl)phosphonic acid] | > 10 | > 10 |
| CC(C)(C)[C@H](NC(=O)c1cc2cc(C(F)(F)P(=O)(O)O)ccc2s1)C(=O)N1C[C@@H](Oc2ccccc2)C[C@H]1C(=O)Nc1ncc(-c2ccccc2)s1 [Compound 207, ((2-(((S)-3,3-dimethyl-1-oxo-1-((2S,4S)-4-phenoxy-2-((5-phenylthiazol-2-yl)carbamoyl)pyrrolidin-1-yl)butan-2-yl)carbamoyl)benzo[b]thiophen-5-yl)difluoromethyl)phosphonic acid] | 1 to 10 | 1 to 10 |
| O=C(N[C@@H](CC1CCNCC1)C(=O)N1CCC[C@H]1C(=O)N1CCc2ccccc2C1)c1cc2cc(C(F)(F)P(=O)(O)O)ccc2[nH]1 [Compound 36, (difluoro(2-(((S)-1-oxo-3-(piperidin-4-yl)-1-((S)-2-(1,2,3,4-tetrahydroisoquinoline-2-carbonyl)pyrrolidin-1-yl)propan-2-yl)carbamoyl)-1H-indol-5-yl)methyl)phosphonic acid] | > 10 | > 10 |
| CN(C)C(=O)CCN(C(=O)[C@@H]1CCCN1C(=O)[C@@H](NC(=O)c1cc2cc(C(F)(F)P(=O)(O)O)ccc2s1)C(C)(C)C)c1ccc(-c2ccccc2)cc1 [Compound 318] | 1 to 10 | 1 to 10 |
| CC(C)(C)[C@H](NC(=O)c1cc2cc(C(F)(F)P(=O)(O)O)ccc2s1)C(=O)N1CCC[C@H]1C(=O)N1CCSC(c2ccccc2)C1 (stereo partly drawn) [Compound 132, ((2-(((2S)-3,3-dimethyl-1-oxo-1-((2S)-2-(2-phenylthiomorpholine-4-carbonyl)pyrrolidin-1-yl)butan-2-yl)carbamoyl)benzo[b]thiophen-5-yl)difluoromethyl)phosphonic acid] | 0.1 to 1 | 0.1 to 1 |

— patent publication US20230295200A1 (REGENTS OF THE UNIVERSITY OF MICHIGAN, priority 2022, published 2023)
